Laboratory results from article PMC2677997 (Bioorganic & medicinal chemistry, 2009).

Target: BoNT/A LC (BoNTA-LC 1-425) (Clostridium botulinum, UniProt P0DPI0)
Type: biochemical

Sequence of BoNT/A LC (BoNTA-LC 1-425) (P0DPI0 1-425 limits assumed): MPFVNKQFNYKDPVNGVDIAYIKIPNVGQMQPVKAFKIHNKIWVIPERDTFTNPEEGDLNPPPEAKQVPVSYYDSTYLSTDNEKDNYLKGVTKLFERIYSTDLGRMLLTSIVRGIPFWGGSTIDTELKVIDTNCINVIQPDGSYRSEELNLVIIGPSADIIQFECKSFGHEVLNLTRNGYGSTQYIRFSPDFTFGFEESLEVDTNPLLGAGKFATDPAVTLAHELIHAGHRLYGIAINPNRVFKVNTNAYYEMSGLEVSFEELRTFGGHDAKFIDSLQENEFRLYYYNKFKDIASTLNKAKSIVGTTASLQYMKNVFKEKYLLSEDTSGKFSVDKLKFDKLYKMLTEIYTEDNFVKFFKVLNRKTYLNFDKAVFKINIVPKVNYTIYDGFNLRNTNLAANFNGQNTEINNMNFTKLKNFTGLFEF

| Compound | inhibitory activity |
| --- | --- |
| CC(=O)Nc1cc(-c2ccc(Cl)cc2)n[nH]1 [Compound 7, N-(3-(4-Chlorophenyl)-1H-pyrazol-5-yl)acetamide] | abolishes all activity |
| O=C(CO)Nc1cc(-c2ccc(Cl)cc2)n[nH]1 [Compound 6, N-(3-(4-Chlorophenyl)-1H-pyrazol-5-yl)-2-hydroxyacetamide] | abolishes all activity |
